{"source": "patent US20160331754A1", "about": "“THERAPIES FOR TREATING CANCERS” (GILEAD SCIENCES, INC., priority 2014, published 2016)", "key": {"pS6RP Ser235/236": {"test_system": "pS6RP Ser235/236", "experiment": "Flow cytometry, basal S6RP phosphorylation in CD34+ progenitor cells from MF patients", "format": "cell-based, human", "conditions": "data not shown", "description": "PBMCs were isolated from whole blood of myelofibrosis (MF) patients who had not received treatments (i.e. naïve patients) or received ruxolitinib (i.e. rux-treated patients). The cells were treated with 0.02, 0.2, or 2.0 μM of Compound B or vehicle (0.1% DMSO in 0.1% FBS/RPMI) for 2 hours at 37° C. The cells were then fixed, permeabilized, and stained for FACS analysis. Antibodies specific to p-AKT Ser473 and pS6RP Ser235/236 were used to detect AKT phosphorylation (p-AKT) and S6RP phosphorylation (p-S6RP) in CD34^+/CD3^−/CD14^−/CD19/CD66^− (BD Biosciences) gated cells using flow cytometry. The percentage of basal (i.e. untreated with TPO) AKT and S6RP phosphorylation were normalized to vehicle control. A two-tailed paired t-test (GraphPad Prism) was used to calculate p-values. Values of p<0.05 were considered significant.\nSimilar studies were conducted with PI3K inhibitors Compounds C and D. PBMC from MF patients had received ruxolitinib (rux) and MF patient had received Compound A. The cells were treated with Compounds C or D at 0, 20.0, 200.0, 2000.0 nM for 2 hours at 37° C. Cells were treated with TPO for 10 minutes. The percentage of basal p-AKT and p-S6RP levels were normalized to vehicle control and those of TPO-treated were normalized to TPO-treated vehicle control. The PI3Kδ inhibitors Compound C is referred by the chemical names of (S)-2-(1-((9H-purin-6-yl)amino)ethyl)-6-fluoro-3-phenylquinazolin-4(3H)-one."}, "WIL2-S target cells": {"test_system": "WIL2-S target cells", "experiment": "Antibody-dependent cellular phagocytosis (ADCP) with polarized macrophages", "format": "cell-based", "conditions": "Homo sapiens, Macrophage, 256 nM", "description": "Next, antibody-dependent cellular phagocytosis (ADCP) was characterized. The CD14^+ negatively selected monocytes (Astarte Biologics, Bothell, Wash.) were cultured in Gibco AIM V Medium CTS (Life Technologies, Grand Island, N.Y.) with macrophage colony-stimulating factor (PeproTech, Rocky Hill, N.J.) at 60 ng/mL. At Day 6 or 7, monocyte-derived macrophages were washed and plated with polarizing cytokines. For differentiation to M1 macrophages, cells were plated with interferon-γ 100 ng/mL (R&D Systems, Minneapolis, Minn.) and lipopolysaccharides from E. coli 055:B5 100 ng/mL (Sigma-Aldrich, St Louis, Mo.) for 24 hours. For differentiation to M2c macrophages, cells were plated in interleukin-10 10 ng/mL (R&D Systems) for 48 hours. Compound B titration was added to the plated macrophages and incubated at 37° C. for about 1 hour. […] Cells were then stained with pooled FITC anti-CD14 (Becton, Dickinson and Company, Franklin Lakes, N.J.) and FITC anti-CD11b (eBioscience, San Diego, Calif.), harvested from 96-well plates with Accutase (Merck Millipore, Darmstadt, Germany) and vigorous pipetting, and analyzed on an LSR II flow cytometer (Becton, Dickinson and Company). Double-positive cells (FITC+CellTracker Red) represented phagocytized target cells and the levels of phagocytosis were calculated as % double-positive cells/% double positive cells+% target cells alone×100. […]"}, "p-AKT Ser473 [1]": {"test_system": "p-AKT Ser473", "experiment": "Western blot, TPO-activated AKT phosphorylation in BaF3/MPL cells", "format": "cell-based", "conditions": "then TPO 50 ng/mL 10 min", "description": "(§1) In addition, Compound B was examined for the effects on the PI3K signaling pathway by determining the levels of AKT and S6 phosphorylation with or without TPO activation. Two cell lines, BaF3/MPL and UT-7/TPO sensitive or responsive to TPO activation were used. The cells were starved (i.e. growing on medium having less FBS) in […] FBS/RPMI for two hours before treated with 0.1, 1.0, or 2.0 μM of Compound B or vehicle (0.1% DMSO in RPMI) for 2 hours at 37° C. To examine the TPO-activated phosphorylation, the cells were then treated or activated with 50 ng/mL of human recombinant TPO (Peprotech) for 10 minutes at 37° C. The TPO activation or treatment may reflect the conditions in diseased cells as the PI3K pathway is activated by TPO in myelofibrosis. After treating with compound and/or TPO, the cells were collected, lysed by lysis buffer (Cell Signaling), separated by SDS-PAGE, and analyzed by the Western blot using antibodies specific to p-AKT Ser473 or pS6 Ser235/236 (Cell Signaling). The phosphorylation levels in treated cells were calculated and compared to those of untreated cells (i.e. vehicle as negative control)."}, "autologous B cells": {"test_system": "autologous B cells", "experiment": "Whole blood (WB) autologous B-cell depletion assay", "format": "cell-based", "description": "Further, whole blood (WB) autologous B-cell depletion and cell-death induction assays were conducted as described in Mossner et al., Blood 115:4393-402, 2010. For cell death assay: Ri-1 DLBCL cells were seeded at 15,000 cells/well in 96-well plates. Cells were preincubated with Compound B or DMSO for 1 hour before the addition of antibody. Plates were incubated at 37° C. in a humidified CO2 chamber for 3 days. Cells were washed once with PBS and treated with Accutase for 15 minutes before being stained with Guava Nexin® reagent and analyzed on the Guava EasyCyte flow cytometer (Merck Millipore).\nThe percentage of deplete autologous B cells in a whole blood assay may represent the antibody potency."}, "PI3Kδ": {"biological_target": "PI3Kδ (Homo sapiens, UniProt O00329)", "sequence (O00329 whole entry, canonical isoform)": "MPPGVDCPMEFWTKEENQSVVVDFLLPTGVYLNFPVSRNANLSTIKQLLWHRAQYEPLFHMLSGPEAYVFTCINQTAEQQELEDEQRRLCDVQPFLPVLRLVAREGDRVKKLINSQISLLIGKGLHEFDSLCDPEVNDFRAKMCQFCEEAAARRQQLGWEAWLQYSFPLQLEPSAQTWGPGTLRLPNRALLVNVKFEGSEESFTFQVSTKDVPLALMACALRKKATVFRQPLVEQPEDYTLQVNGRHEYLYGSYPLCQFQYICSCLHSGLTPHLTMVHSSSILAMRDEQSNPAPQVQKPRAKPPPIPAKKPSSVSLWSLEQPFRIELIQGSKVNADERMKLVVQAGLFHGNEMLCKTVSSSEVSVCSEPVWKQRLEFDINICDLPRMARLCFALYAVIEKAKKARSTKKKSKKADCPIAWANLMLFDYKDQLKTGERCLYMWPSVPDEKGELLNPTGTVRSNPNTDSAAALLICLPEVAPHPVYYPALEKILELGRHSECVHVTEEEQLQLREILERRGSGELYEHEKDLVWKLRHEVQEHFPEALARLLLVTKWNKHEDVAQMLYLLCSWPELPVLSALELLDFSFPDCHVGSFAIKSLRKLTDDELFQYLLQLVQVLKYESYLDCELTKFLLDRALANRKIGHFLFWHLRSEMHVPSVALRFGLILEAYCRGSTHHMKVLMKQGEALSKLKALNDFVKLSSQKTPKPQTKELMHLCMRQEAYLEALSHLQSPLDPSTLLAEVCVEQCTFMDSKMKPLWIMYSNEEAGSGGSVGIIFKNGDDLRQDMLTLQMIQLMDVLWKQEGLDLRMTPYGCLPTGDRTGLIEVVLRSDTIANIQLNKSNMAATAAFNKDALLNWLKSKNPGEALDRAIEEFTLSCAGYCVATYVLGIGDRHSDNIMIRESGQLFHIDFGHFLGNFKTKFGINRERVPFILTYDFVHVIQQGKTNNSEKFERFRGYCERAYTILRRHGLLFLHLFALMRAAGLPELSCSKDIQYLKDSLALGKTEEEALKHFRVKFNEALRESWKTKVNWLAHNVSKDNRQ", "sequence (P27986 whole entry partner, canonical isoform)": "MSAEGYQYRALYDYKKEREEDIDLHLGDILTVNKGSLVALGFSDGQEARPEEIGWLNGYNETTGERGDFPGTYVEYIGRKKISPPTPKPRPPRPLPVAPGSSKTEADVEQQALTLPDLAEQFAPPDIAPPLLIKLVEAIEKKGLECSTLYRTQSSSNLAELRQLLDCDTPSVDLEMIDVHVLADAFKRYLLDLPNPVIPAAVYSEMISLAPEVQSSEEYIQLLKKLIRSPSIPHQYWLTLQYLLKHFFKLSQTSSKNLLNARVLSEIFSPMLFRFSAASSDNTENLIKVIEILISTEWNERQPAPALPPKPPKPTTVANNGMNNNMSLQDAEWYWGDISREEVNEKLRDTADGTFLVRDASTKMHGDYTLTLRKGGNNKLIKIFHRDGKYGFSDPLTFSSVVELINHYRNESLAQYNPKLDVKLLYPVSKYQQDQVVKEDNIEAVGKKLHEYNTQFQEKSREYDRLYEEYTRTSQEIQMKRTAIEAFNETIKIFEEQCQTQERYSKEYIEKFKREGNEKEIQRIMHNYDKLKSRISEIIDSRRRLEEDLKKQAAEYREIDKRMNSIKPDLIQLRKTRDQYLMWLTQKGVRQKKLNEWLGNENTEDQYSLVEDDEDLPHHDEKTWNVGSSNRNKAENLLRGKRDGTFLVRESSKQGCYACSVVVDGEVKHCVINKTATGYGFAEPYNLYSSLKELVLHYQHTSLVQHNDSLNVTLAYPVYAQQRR", "experiment": "TR-FRET in vitro biochemical enzyme assay of class I PI3K isoforms", "description": "The effects of Compound B on the activities of class I PI3K isoforms were measured using an in vitro biochemical enzyme assay at steady-state concentrations of adenosine triphosphate (ATP). Compound B is (S)-2-(1-((9H-purin-6-yl)amino)propyl)-5-fluoro-3-phenylquinazolin-4(3H)-one as described above.\nA time resolved fluorescence resonance energy transfer (TR-FRET) assay was used to monitor the formation of […] (PIP3) molecule, as it competed with fluorescently labeled PIP3 for binding to the GRP-1 pleckstrin homology domain protein."}, "pS6 Ser235/236": {"test_system": "pS6 Ser235/236", "experiment": "Western blot, TPO-activated S6 phosphorylation in UT-7/TPO cells", "format": "cell-based", "conditions": "then TPO", "description": "as §1"}, "p-AKT Ser473 [2]": {"test_system": "p-AKT Ser473", "experiment": "Western blot, TPO-activated AKT phosphorylation in UT-7/TPO cells", "format": "cell-based", "conditions": "then TPO", "description": "as §1"}}, "note": "Values joined by “and” are separate entries in the source; they are usually repeats but may differ in a detail not shown here. Identical values can stand only once.", "data": [{"smiles": "CC[C@H](Nc1ncnc2[nH]cnc12)c1nc2cccc(F)c2c(=O)n1-c1ccccc1", "note": "[Compound B, (S)-2-(1-((9H-purin-6-yl)amino)propyl)-5-fluoro-3-phenylquinazolin-4(3H)-one]", "values": [{"measurement": "basal p-S6RP level vs untreated cells", "setting": "pS6RP Ser235/236", "result": "reduced levels"}, {"measurement": "inhibition at 0.256 µM", "setting": "WIL2-S target cells", "result": "< 30", "unit": "%"}, {"measurement": "reduced p-AKT levels vs vehicle", "setting": "p-AKT Ser473 [1]; 0.1 μM 2 h", "result": 51, "unit": "%"}, {"measurement": "reduced p-AKT levels vs vehicle", "setting": "p-AKT Ser473 [1]; 1.0 μM 2 h", "result": 64, "unit": "%"}, {"measurement": "reduced p-AKT levels vs vehicle", "setting": "p-AKT Ser473 [1]; 2.0 μM 2 h", "result": 67, "unit": "%"}, {"measurement": "Percentage of B-cell depletion WB", "setting": "autologous B cells; Compound B alone 100 nM", "result": "5% and −1% and −3%"}, {"measurement": "Percentage of B-cell depletion WB", "setting": "autologous B cells; Compound B alone 760 nM", "result": "−1% and −4%"}, {"measurement": "Percentage of B-cell depletion WB", "setting": "autologous B cells; Compound B alone 4200 nM", "result": "0% and 1% and 5%"}, {"measurement": "selectivity among PI3K isoforms", "setting": "PI3Kδ", "result": "selective inhibitor to PI3Kδ"}, {"measurement": "inhibition to PI3Kδ compared to PI3Kα", "setting": "PI3Kδ; steady-state ATP", "result": 450, "unit": "fold"}, {"measurement": "inhibition to PI3Kδ compared to PI3Kβ", "setting": "PI3Kδ; steady-state ATP", "result": 210, "unit": "fold"}, {"measurement": "inhibition to PI3Kδ compared to PI3Kγ", "setting": "PI3Kδ; steady-state ATP", "result": 110, "unit": "fold"}, {"measurement": "reduced p-S6 levels vs vehicle", "setting": "pS6 Ser235/236; 0.1 μM 2 h", "result": 13, "unit": "%"}, {"measurement": "reduced p-S6 levels vs vehicle", "setting": "pS6 Ser235/236; 1.0 μM 2 h", "result": 28, "unit": "%"}, {"measurement": "reduced p-S6 levels vs vehicle", "setting": "pS6 Ser235/236; 2.0 μM 2 h", "result": 48, "unit": "%"}, {"measurement": "reduced p-AKT levels vs vehicle", "setting": "p-AKT Ser473 [2]; 0.1 μM 2 h", "result": 11, "unit": "%"}, {"measurement": "reduced p-AKT levels vs vehicle", "setting": "p-AKT Ser473 [2]; 1.0 μM 2 h", "result": 44, "unit": "%"}, {"measurement": "reduced p-AKT levels vs vehicle", "setting": "p-AKT Ser473 [2]; 2.0 μM 2 h", "result": 55, "unit": "%"}]}]}
